For assay [1], the target named is His-tagged KRAS G12D protein (Homo sapiens, UniProt P01116, G12D). Kind of assay: KRAS G12D TR-FRET Assay. It is filed as binding. As for the experimental part: KRAS G12D TR-FRET Assay Compounds of interest were prepared in a dose-response titration in DMSO, and 80 nL were added via Labcyte Echo to each well of a 384-well plate (Perkin Elmer 6008280). The His-tagged KRAS G12D protein (Amgen) was diluted to 20 nM in Assay Buffer (20 mM HEPES, pH 7.4, 10 mM MgCl2, 50 mM NaCl, 0.1% BSA, 0.01% Tween-20, 10 μM GDP) and 2 uL was added to the appropriate wells of the 384-well plate. The plate was incubated for 30 minutes at room temperature. Biotinylated KRPep-2d substrate (Amgen) was diluted to 20 nM in Assay Buffer and 2 μL was added to all wells and incubated for 1 hour at room temperature. Detection Reagent (0.4 nM LANCE Eu-W1024 Anti-6×-His (Perkin Elmer AD0401), 5 nM streptavidin-d2 (Cisbio 610SADLA)) was prepared in Assay Buffer, then 4 μL was added to the plate and incubated for 1 hour at room temperature. Plates were read using PerkinElmer EnVision (ex: 320 nm, em1: 665 nm, em2: 615 nm) and em1/em2 data was used to generate curve fits using a 4-parameter logistic model to calculate IC50 values.
His-tagged KRAS G12D protein, sequence (P01116 1-188 isoform P01116-2 G12D): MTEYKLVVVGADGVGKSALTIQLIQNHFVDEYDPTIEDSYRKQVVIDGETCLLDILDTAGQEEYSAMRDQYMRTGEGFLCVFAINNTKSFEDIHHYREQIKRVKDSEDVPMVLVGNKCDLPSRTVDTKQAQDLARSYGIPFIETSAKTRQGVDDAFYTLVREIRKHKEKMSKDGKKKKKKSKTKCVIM

Assay [2] concerns the target GDP-bound KRAS protein (aa 1-169), containing both G12D and C118A amino acid substitutions (Homo sapiens, UniProt P01116, C118A/G12D). Nature of the assay: KRAS G12D Coupled Nucleotide Exchange Assay. It is filed as biochemical. As for the experimental part:
KRAS G12D Coupled Nucleotide Exchange Assay
Following compound pre-incubation, purified SOS protein (aa 564-1049) and GTP (Roche 10106399001) were added to the assay wells and incubated for an additional 30 min. […] The assay plates were then read on a PerkinElmer EnVision Multilabel Reader, using AlphaScreen® technology, and data were analyzed using a 4-parameter logistic model to calculate IC50 values.

Assay [3] has as its system Phosphorylation of ERK1/2 in AsPC-1 cells. Nature of the assay: Phospho-ERK1/2 MSD Assay. It is filed as cell-based. As for the experimental part: AsPC-1 (ATCC® CRL-1682™) cells were cultured in RPMI 1640 Medium (ThermoFisher Scientific 11875093) containing 10% fetal bovine serum (ThermoFisher Scientific 16000044) and Ix penicillin-streptomycin-glutamine (ThermoFisher Scientific 10378016). Sixteen hours prior to compound treatment, AsPC-1 cells were seeded in 96-well cell culture plates at a density of 25,000 cells/well and incubated at 37° C., 5% CO2. A compound dose-response titration was diluted in growth media, added to appropriate wells of a cell culture plate, and then incubated at 37° C., 5% CO2 for 2 h. Following compound treatment, cells were washed with ice-cold Dulbecco's phosphate-buffered saline, no Ca^2+ or Mg^2+ (ThermoFisher Scientific 14190144), and then lysed in RIPA buffer (50 mM Tris-HCl pH 7.5, 1% Igepal, 0.5% sodium deoxycholate, 150 mM NaCl, and 0.5% sodium dodecyl sulfate) containing protease inhibitors (Roche 4693132001) and phosphatase inhibitors (Roche 4906837001). Phosphorylation of ERK1/2 in compound-treated lysates was assayed using Phospho-ERK1/2 Whole Cell Lysate kits (Meso Scale Discovery K151DWD) according to the manufacturer's protocol. Assay plates were read on a Meso Scale Discovery Sector Imager 6000, and data were analyzed using a 4-parameter logistic model to calculate IC50 values.

[4] abbreviates: Homo sapiens, ASPC1, 2 h, read-out: 2 h p-ERK (AsPC-1 cells), IC50, AsPC-1 cells, 2 h compound treatment.
[5] abbreviates: read-out: 2 h p-ERK (AsPC-1 cells), IC50, AsPC-1 cells, 2 h compound treatment.

pIC50: −log10 of the molar value. Where two headings read alike, the source gives them in different places.

GDP-bound KRAS protein (aa 1-169), containing both G12D and C118A amino acid substitutions, sequence (P01116 1-169 isoform P01116-2 G12D/C118A): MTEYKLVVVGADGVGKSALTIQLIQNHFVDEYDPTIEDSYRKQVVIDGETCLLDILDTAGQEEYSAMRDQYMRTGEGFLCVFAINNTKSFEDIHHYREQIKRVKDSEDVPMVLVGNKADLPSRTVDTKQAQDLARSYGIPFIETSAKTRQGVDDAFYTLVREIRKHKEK

As for `CCc1c(F)ccc2cc(O)cc(-c3c(F)cc4c(N5C[C@@H]6CO[C@@H](C6)C5)nc(OC[C@@]56CCCN5C[C@H](F)C6)nc4c3F)c12` (racemic) [Example 36, rac-4-(4-((1R,5S)-6-Oxa-3-azabicyclo[3.2.1]octan-3-yl)-6,8-difluoro-2-(((2R,7aS)-2-fluorotetrahydro-1H-pyrrolizin-7a(5H)-yl)methoxy)quinazolin-7-yl)-5-ethyl-6-fluoronaphthalen-2-ol], the pIC50 (commonly −log10 of the IC50, conventionally taken in molar units) in assay [1] was 7.70; in assay [3] (setting [4]), 5.97. Moreover, the IC50 (as a rule, the concentration at which inhibition is half-maximal) in assay [2] was 12 nM.
The corresponding values for `CCc1c(F)ccc2cc(O)cc(-c3c(F)cc4c(N5C[C@H]6CC[C@@H](C5)O6)nc(OC[C@@]56CCCN5C[C@H](F)C6)nc4c3F)c12` (relative stereo) [Example 18, rel-4-(4-((1R,5S)-8-Oxa-3-azabicyclo[3.2.1]octan-3-yl)-6,8-difluoro-2-(((2R,7aS)-2-fluorotetrahydro-1H-pyrrolizin-7a(5H)-yl)methoxy)quinazolin-7-yl)-5-ethyl-6-fluoronaphthalen-2-ol] are 7.34, 5.54 and 37 nM.
As to `C[C@@H]1C[C@@H]1c1c(Cl)cc2[nH]ncc2c1-c1c(F)cc2c(N3CCC[C@]4(CNC(=O)O4)C3)nc(OC[C@@]34CCCN3C[C@H](F)C4)nc2c1F` (relative stereo) [Example 111, (5S)-7-(7-(6-Chloro-5~(2-methylcyclopropyl)-1H-indazol-4-yl)-6,8-difluoro-2-(((2R,7aS)-2-fluorotetrahydro-1H-pyrrolizin-7a(5H)-yl)methoxy)quinazolin-4-yl)-1-oxa-3,7-diazaspiro[4.5]decan-2-one 2,2,2-trifluoroacetate], the pIC50 in assay [1] is 8.30; in assay [3] (setting [4]) it was 7.26. Moreover, the IC50 in assay [2] is 4 nM.
For `CCc1c(F)ccc2cc(O)cc(-c3c(F)cc4c(N5CCC[C@@](C)(O)C5)nc(OC[C@@]56CCCN5C[C@H](F)C6)nc4c3F)c12` (single isomer, unassigned) [Example 2], the pIC50 in assay [1] is 9.00; in assay [3] (setting [4]) it was 8.05. For the same compound, in assay [2], the IC50 stood at 1 nM.
With `C#Cc1cccc2cc(O)cc(-c3c(F)cc4c(N5CCC[C@@](C)(O)C5)nc(OC[C@@]56CCCN5C[C@H](F)C6)nc4c3F)c12` (single isomer, unassigned) [Example 12], the negative logarithm of the IC50 (pIC50) was 9.00 in assay [1] and 8.30 in assay [3] (setting [4]). For the same compound, the IC50 in assay [2] stood at 1 nM.
As to `C#Cc1c(F)ccc2cc(O)cc(-c3c(F)cc4c(N5CCC[C@@](C)(O)C5)nc(OC[C@@]56CCCN5C[C@H](F)C6)nc4c3F)c12` (single isomer, unassigned) [Example 13], the figures for the pIC50 in assay [1] and in assay [3] (setting [5]) were 6.01 and 6.69, respectively. In addition, in assay [2], the half-inhibitory concentration (IC50) turned out to be 1254 nM.
Regarding `C#Cc1c(F)ccc2cc(O)cc(-c3c(F)cc4c(N5CCC[C@@](C)(O)C5)nc(OC[C@@]56CCCN5C[C@H](F)C6)nc4c3F)c12` (single isomer, unassigned) [Example 14], the results for the negative-log IC50 (pIC50) in assay [1] and in assay [3] (setting [5]) were 9.00 and 8.52, respectively. This compound yielded a 50% inhibitory concentration (IC50) in assay [2] of 2 nM.
Take `CCc1c(F)ccc2cc(O)cc(-c3ccc4c(N5CC6CC(O)C(C6)C5)nc(OC[C@@]56CCCN5C[C@H](F)C6)nc4c3F)c12` (single isomer, unassigned) [Example 15]: the results for the pIC50 in assay [1] and in assay [3] (setting [4]) were 8.40 and 6.53, respectively. Besides, in assay [2], the IC50 came to 4 nM.
For `C#Cc1cccc2cc(O)cc(-c3ccc4c(N5CC6CC(O)C(C6)C5)nc(OC[C@@]56CCCN5C[C@H](F)C6)nc4c3F)c12` (single isomer, unassigned) [Example 16], in that order: 8.70, 6.88 and 2 nM.
For the compound `C#Cc1c(F)ccc2cc(O)cc(-c3ccc4c(N5CC6CC(O)C(C6)C5)nc(OC[C@@]56CCCN5C[C@H](F)C6)nc4c3F)c12` (single isomer, unassigned) [Example 17], the negative logarithm of the IC50 (pIC50) in assay [1] is 7.96; in assay [3] (setting [4]), 6.13. This compound yielded an IC50 in assay [2] of 9 nM.
The corresponding values for `CCc1c(F)ccc2cc(O)cc(-c3c(F)cc4c(N5CCCC(O)(C(F)F)C5)nc(OC[C@@]56CCCN5C[C@H](F)C6)nc4c3F)c12` (single isomer, unassigned) [Example 20] are 8.70, 7.24 and 2 nM.
For the compound `CCc1c(F)ccc2cc(O)cc(-c3ccc4c(N5CCCC(O)(C(F)F)C5)nc(OC[C@@]56CCCN5C[C@H](F)C6)nc4c3F)c12` (single isomer, unassigned) [Example 23], the negative-log IC50 (pIC50) was 8.70 in assay [1] and 6.80 in assay [3] (setting [4]). The IC50 in assay [2] was determined as 2 nM.
For `CCc1c(F)ccc2cc(O)cc(-c3c(O)cc4c(N5CCC[C@@](C)(O)C5)nc(OC[C@@]56CCCN5C[C@H](F)C6)nc4c3F)c12` (single isomer, unassigned) [Example 27], the pIC50 is 9.00 in assay [1] and 7.74 in assay [3] (setting [4]). In assay [2], this compound yielded a 50% inhibitory concentration (IC50) of 1 nM.
With `CCc1c(F)ccc2cc(O)cc(-c3ccc4c(N5CCOCC(C)(O)C5)nc(OC[C@@]56CCCN5C[C@H](F)C6)nc4c3F)c12` (single isomer, unassigned) [Example 29], the results for the negative logarithm of the IC50 (pIC50) in assay [1] and in assay [3] (setting [4]) were 9.00 and 7.82, respectively. In assay [2], this compound displayed an IC50 of 1 nM.
Take `CCc1cccc2cc(O)cc(-c3ccc4c(N5CCOCC(C)(O)C5)nc(OC[C@@]56CCCN5C[C@H](F)C6)nc4c3F)c12` (single isomer, unassigned) [Example 30]: the values for the pIC50 in assay [1] and in assay [3] (setting [4]) were 8.52 and 7.92, respectively. Also, in assay [2], the IC50 was determined as 3 nM.
As to `CC1(O)COCCN(c2nc(OC[C@@]34CCCN3C[C@H](F)C4)nc3c(F)c(-c4cc(O)cc5ccc(F)c(F)c45)ccc23)C1` (single isomer, unassigned) [Example 31], the values for the negative logarithm of the IC50 (pIC50) in assay [1] and in assay [3] (setting [4]) were 8.52 and 7.57, respectively. This compound gave an IC50 in assay [2] of 2 nM.
Regarding `CC1(O)COCCN(c2nc(OC[C@@]34CCCN3C[C@H](F)C4)nc3c(F)c(-c4cc(O)cc5ccc(F)c(F)c45)c(F)cc23)C1` (single isomer, unassigned) [Example 32], the pIC50 is 8.30 in assay [1] and 7.60 in assay [3] (setting [4]). In assay [2], this compound had an IC50 of 3 nM.
As to `CCc1cccc2cc(O)cc(-c3c(F)cc4c(N5CCOCC(C)(O)C5)nc(OC[C@@]56CCCN5C[C@H](F)C6)nc4c3F)c12` (single isomer, unassigned) [Example 33], the negative logarithm of the IC50 (pIC50) in assay [1] is 8.30; in assay [3] (setting [4]), 8.40. For the same compound, the IC50 in assay [2] amounted to 3 nM.
On to `CCc1c(F)ccc2cc(O)cc(-c3c(F)cc4c(N5CCOCC(C)(O)C5)nc(OC[C@@]56CCCN5C[C@H](F)C6)nc4c3F)c12` (single isomer, unassigned) [Example 34], for which the negative-log IC50 (pIC50) in assay [1] and in assay [3] (setting [4]) was 8.70 each time. The compound also registered a concentration for half-maximal inhibition (IC50) in assay [2] of 2 nM.
As to `CCc1c(F)ccc2cc(O)cc(-c3c(F)cc4c(N5CCCC6(CCO6)C5)nc(OC[C@@]56CCCN5C[C@H](F)C6)nc4c3F)c12` (single isomer, unassigned) [Example 38], the negative-log IC50 (pIC50) in assay [1] is 7.92; in assay [3] (setting [5]), 6.37. In addition, the IC50 in assay [2] came out at 12 nM.
For `CCc1c(F)ccc2cc(O)cc(-c3c(F)cc4c(N5CCCC6(CCO6)C5)nc(OC[C@@]56CCCN5C[C@H](F)C6)nc4c3F)c12` (single isomer, unassigned) [Example 39], in that order: 8.52, 8.00 and 4 nM.
Turning to `CCc1c(F)ccc2cc(O)cc(-c3c(F)cc4c(N5CCCC6(CNC(=O)O6)C5)nc(OC[C@@]56CCCN5C[C@H](F)C6)nc4c3F)c12` (single isomer, unassigned) [Example 56], the pIC50 in assay [1] was 7.62; in assay [3] (setting [5]), 6.29. The IC50 in assay [2] was 8 nM.

The values are drawn from patent US20250179077A1, “QUINAZOLINE COMPOUNDS AND USES THEREOF AS INHIBITORS OF MUTANT KRAS PROTEINS” (AMGEN INC., priority 2022, published 2025).
